Laboratory results: patent US10640495B2, “Heterocycle derivatives having TrkA inhibitory activity” (Shionogi & Co., Ltd., priority 2015, dated 2020)
Where two headings read alike, the source gives them in different places.

Tests used:
[1] = target: hERG channel (IKr) (Homo sapiens (Human), UniProt Q12809); experiment: hERG test, whole cell patch clamp IKr in CHO cells (Test Example 3); format: cell-based; settings: pH 7.4, at of test compound (so in the source), CHO cells expressing hERG channel, read-out: % inhibition of tail peak current (IKr)
Description: For the purpose of assessing risk of an electrocardiogram QT interval prolongation of the compound of the present invention, effects of the compound of the present invention on delayed rectifier K^+ current (IKr), which plays an important role in the ventricular repolarization process, was studied using CHO cells expressing human ether-a-go-go related gene (hERG) channel.
After a cell was retained at a membrane potential of −80 mV by whole cell patch clamp method using an automated patch clamp system (QPatch; Sophion Bioscience A/S) and gave a leak potential of −50 mV, IKr induced by depolarization pulse stimulation at +20 mV for 2 seconds, and further, repolarization pulse stimulation at −50 mV for 2 seconds, was recorded. A vehicle, which is the 0.1-0.3% dimethyle sulfoxide solution in extracellular solution (NaCl: 145 mmol/L, KCl: 4 mmol/L, CaCl2: 2 mmol/L, MgCl2: 1 mmol/L, glucose: 10 mmol/L, HEPES (4-(2-hydroxyethyl)-1-piperazineethanesulfonic acid): 10 mmol/L, pH7.4), or the compound of the present invention had been dissolved at an objective concentration in the extracellular solution is applied to the cell at room temperature for 7 minutes or more. From the recording IKr, an absolute value of the tail peak current was measured based on the current value at the resting membrane potential using analysis software (QPatch assay software; Sophion Bioscience A/S). Further, the % inhibition of tail peak current for the compound of the present invention relative to the tail peak current after application of the vehicle is calculated to assess influence of the compound of the present invention on IKr.
(Result) % inhibition was shown at […] of test compound.

[2] = target: human TrkA (Homo sapiens (Human), UniProt P04629); experiment: Human TrkA inhibition assay (Test Example 2); format: biochemical
How it was run: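 Mobility-shift readout of phosphorylated versus unphosphorylated fluorescent peptide gave conversion ratio, normalized to DMSO and no-enzyme wells; IC50 by logistic fit of 10- or 15-point 3-fold dilutions. Conditions: 1 nmol/L enzyme, 15 min compound preincubation, then 500 μmol/L ATP plus 1.5 μmol/L peptide, 120 min, 37 °C.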

[3] = Clearance test, intravenous administration in SD rats (Test Example 7); format: in vivo; settings: rat, plasma, intravenous administration 0.5 mg/kg or 1 μmol/kg, read-out: Total Clearance (CLtot)
Description: Materials and Methods for Experiments • (1) Experimental animals: SD rats were used. • (2) Rearing condition: SD rats were allowed free access to solid feed and sterilized tap water. • (3) Setting of dosage and grouping: Intravenous administration was performed with the predetermined dosage. Grouping was set as below. (Dosage is changed per compound) Intravenous administration 0.5 mg/kg or 1 μmol/kg (n=2) • (4) Preparation of administration solutions: Administration was performed after solubilization by using dimethylacetamide/propylene glycol=1/1 or dimethyl sulfoxide/propylene glycol=1/1 as the solvent. • (5) Routes of administration: Intravenous administration was performed from caudal vein by syringes with needle. • (6) Evaluation items: Blood was collected serially and concentration of a compound of the present invention in plasma was measured by LC/MS/MS. • (7) Statistical analysis: About transition of concentration of a compound of the present invention in plasma, Total Clearance (CLtot) of a compound of the present invention was calculated by non-linear least-squares method program, WinNonlin (a registered trademark).

[4] = Table 152, human TrkA inhibition, read-out: IC50_nM
[5] = human TrkA 1 nmol/L, ATP 500 μmol/L, 120 min at 37° C., read-out: IC50 values (TrkA phosphorylation inhibition)
[6] = Table 157, human TrkA inhibition, read-out: IC50

human TrkA, sequence (P04629 440-796): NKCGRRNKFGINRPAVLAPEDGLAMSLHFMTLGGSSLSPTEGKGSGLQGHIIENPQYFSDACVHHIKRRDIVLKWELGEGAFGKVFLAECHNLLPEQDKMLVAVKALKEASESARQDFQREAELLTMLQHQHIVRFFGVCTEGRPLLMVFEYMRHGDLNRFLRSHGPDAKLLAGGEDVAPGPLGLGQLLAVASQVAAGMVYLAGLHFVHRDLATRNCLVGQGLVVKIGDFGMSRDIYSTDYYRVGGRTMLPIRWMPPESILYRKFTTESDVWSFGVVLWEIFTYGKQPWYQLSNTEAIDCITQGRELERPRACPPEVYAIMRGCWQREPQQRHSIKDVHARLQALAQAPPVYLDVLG
hERG channel (IKr), sequence (Q12809 whole entry): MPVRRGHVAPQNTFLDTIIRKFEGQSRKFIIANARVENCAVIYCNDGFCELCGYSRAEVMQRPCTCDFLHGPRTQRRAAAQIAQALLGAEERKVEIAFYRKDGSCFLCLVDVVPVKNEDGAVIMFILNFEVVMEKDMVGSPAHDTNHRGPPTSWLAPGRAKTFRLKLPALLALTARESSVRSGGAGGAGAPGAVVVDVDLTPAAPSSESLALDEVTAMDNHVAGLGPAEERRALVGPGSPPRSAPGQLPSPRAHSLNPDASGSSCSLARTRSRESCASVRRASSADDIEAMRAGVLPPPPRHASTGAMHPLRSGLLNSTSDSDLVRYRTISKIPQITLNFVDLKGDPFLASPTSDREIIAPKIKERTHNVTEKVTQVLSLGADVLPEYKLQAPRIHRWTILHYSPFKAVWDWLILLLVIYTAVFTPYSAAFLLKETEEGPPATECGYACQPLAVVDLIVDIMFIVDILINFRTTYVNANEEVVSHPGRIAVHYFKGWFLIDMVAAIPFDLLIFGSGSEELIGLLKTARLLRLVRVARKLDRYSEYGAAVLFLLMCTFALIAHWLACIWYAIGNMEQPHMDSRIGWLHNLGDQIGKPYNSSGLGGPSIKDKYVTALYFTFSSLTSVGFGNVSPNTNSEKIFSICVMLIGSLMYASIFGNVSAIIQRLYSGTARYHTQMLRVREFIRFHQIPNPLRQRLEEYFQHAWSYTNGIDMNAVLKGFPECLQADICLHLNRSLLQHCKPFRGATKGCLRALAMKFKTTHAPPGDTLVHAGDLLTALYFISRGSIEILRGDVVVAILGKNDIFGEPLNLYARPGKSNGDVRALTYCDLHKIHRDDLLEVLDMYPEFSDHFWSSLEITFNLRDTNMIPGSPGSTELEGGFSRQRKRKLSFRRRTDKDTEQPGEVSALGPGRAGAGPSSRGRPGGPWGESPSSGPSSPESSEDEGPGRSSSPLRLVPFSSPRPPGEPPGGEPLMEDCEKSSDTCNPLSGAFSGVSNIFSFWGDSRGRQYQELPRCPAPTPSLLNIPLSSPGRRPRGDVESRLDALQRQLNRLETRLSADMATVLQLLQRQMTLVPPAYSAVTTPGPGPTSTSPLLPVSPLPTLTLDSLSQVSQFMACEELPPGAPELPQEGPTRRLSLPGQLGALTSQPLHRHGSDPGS

IC50 [2, 6] | Compound | further results
– | COCCN1C[C@@H](NC(=O)Nc2c(C)c(-c3cnn(C)c3)nn2-c2ccccc2)[C@H](c2ccccc2)O1 (racemic) [Compound I-4] | inhibition at 5 mol/L [1]: 14.1%; IC50 [2, 4]: < 100 nM
– | COCCN1C[C@@H](NC(=O)Nc2c(C)c(-c3cnc4c(cnn4C)c3)nn2-c2ccccc2)[C@H](c2ccnc(F)c2)O1 (racemic) [Compound I-40] | clearance [3]: 2.82 mL/min/kg; IC50 [2, 5]: 1.6 nM
– | COCCN1C[C@@H](NC(=O)Nc2c(C)c(-c3cnc(OC)nc3)nn2-c2ccccc2)[C@H](c2cnc(F)c(F)c2)O1 (racemic) [Compound I-57] | clearance [3]: 7.93 mL/min/kg; IC50 [2, 5]: 2.2 nM
– | COCCN1C[C@@H](NC(=O)Nc2c(C)c(-c3cnc4c(c3)nnn4C)nn2-c2ccccc2)[C@H](c2ccnc(F)c2)O1 (racemic) [Compound I-90] | clearance [3]: 6.35 mL/min/kg; IC50 ([2]; Table 153, human TrkA inhibition, read-out: IC50): < 100 nM
– | COCCC1C[C@@H](NC(=O)Nc2c(C)c(-c3cnn(C)c3)nn2-c2ccccc2)[C@H](c2ccccc2)O1 (some centres unmarked) [Compound I-6] | inhibition at 5 mol/L [1]: 8.9%; IC50 [2, 4]: < 100 nM
– | COCC[C@@H]1O[C@@H](NC(=O)Nc2c(C)c(-c3cnn(C)c3)nn2-c2ccccc2)[C@H](c2ccccc2)O1 [Compound I-7] | inhibition at 5 mol/L [1]: 4.2%; IC50 [2, 5]: 6.1 nM
– | COCCC1C[C@@H](NC(=O)Nc2c(C)c(-c3cnc(C)nc3)nn2-c2ccccc2)[C@H](c2ccccc2)O1 (some centres unmarked) [Compound I-12] | inhibition at 5 mol/L [1]: 17.6%; clearance [3]: 13.6 mL/min/kg; IC50 [2, 4]: < 100 nM
– | CCN1CCC(NC(=O)c2ccc(-c3nn(-c4ccccc4)c(NC(=O)N[C@@H]4CC(CCOC)O[C@H]4c4ccccc4)c3C)cc2)CC1 (some centres unmarked) [Compound I-19] | clearance [3]: 15.6 mL/min/kg; IC50 [2, 4]: < 100 nM
– | COCC[C@@H]1C[C@@H](NC(=O)Nc2c(C)c(-c3cnc4c(c3)nnn4C)nn2-c2ccccc2)[C@H](c2ccnc(F)c2)O1 [Compound I-275] | clearance [3]: 3.73 mL/min/kg; IC50 [2, 5]: 3 nM
< 100 nM | COCCN1C[C@@H](NC(=O)Nc2c(C)c(-c3cnc(N4CCN(C)[C@H](C)C4)nc3)nn2-c2ccccc2)[C@H](c2ccnc(F)c2)O1 [Compound I-592] | –
< 100 nM | COCCN1C[C@@H](NC(=O)Nc2c(C)c(-c3cnc(N4CCN(C)[C@@H](C)C4)nc3)nn2-c2ccccc2)[C@H](c2ccnc(F)c2)O1 [Compound I-593] | –
< 100 nM | COCCN1C[C@@H](NC(=O)Nc2c(C)c(-c3cnc(N4CCN(C)C[C@H]4C)nc3)nn2-c2ccccc2)[C@H](c2ccnc(F)c2)O1 [Compound I-594] | –
< 100 nM | CNC(=O)c1cc(-c2nn(-c3ccccc3)c(NC(=O)N[C@@H]3CN(CCOC)O[C@H]3c3ccc(F)c(F)c3)c2C)ccn1 [Compound I-595] | –
< 100 nM | CCN1C[C@@H](NC(=O)Nc2c(C)c(OCCC3CCN(C(=O)OC(C)(C)C)C3)nn2-c2ccccc2)[C@H](c2ccc(F)c(F)c2)O1 (some centres unmarked) [Compound I-597] | –
< 100 nM | COCCN1C[C@@H](NC(=O)Nc2c(C)c(-c3cnc(N4CCN(C)CC4)nc3)nn2-c2ccccc2)[C@H](c2ccc(F)c(F)c2)O1 [Compound I-598] | –
< 100 nM | CCN1C[C@@H](NC(=O)Nc2c(C)c(OCCC3CCNC3)nn2-c2ccccc2)[C@H](c2ccc(F)c(F)c2)O1 (some centres unmarked) [Compound I-599] | –
< 100 nM | COCCN1C[C@@H](NC(=O)Nc2c(C)c(OC3CN(C)C3)nn2-c2ccccc2)[C@H](c2ccc(F)c(F)c2)O1 [Compound I-600] | –
< 100 nM | COCCN1C[C@@H](NC(=O)Nc2c(C)c(OC3CCN(C(=O)OC(C)(C)C)CC3)nn2-c2ccccc2)[C@H](c2ccc(F)c(F)c2)O1 [Compound I-601] | –

IC50 [2, 6] | Compound | further results
< 100 nM | COCCN1C[C@@H](NC(=O)Nc2c(C)c(OC3CCNCC3)nn2-c2ccccc2)[C@H](c2ccc(F)c(F)c2)O1 [Compound I-602] | –
< 100 nM | COCCN1C[C@@H](NC(=O)Nc2c(C)c(OC3CCN(C)CC3)nn2-c2ccccc2)[C@H](c2ccc(F)c(F)c2)O1 [Compound I-603] | –
< 100 nM | CCN1CCC(Oc2nn(-c3ccccc3)c(NC(=O)N[C@@H]3CN(CCOC)O[C@H]3c3ccc(F)c(F)c3)c2C)CC1 [Compound I-604] | –
< 100 nM | COCCN1C[C@@H](NC(=O)Nc2c(C)c(OCC3COC(C)(C)O3)nn2-c2ccccc2)[C@H](c2ccc(F)c(F)c2)O1 (some centres unmarked) [Compound I-614] | –
< 100 nM | COCCN1C[C@@H](NC(=O)Nc2c(C)c(OCC(O)CO)nn2-c2ccccc2)[C@H](c2ccc(F)c(F)c2)O1 (some centres unmarked) [Compound I-615] | –
< 100 nM | COCCN1C[C@@H](NC(=O)Nc2c(C)c(-c3ccnc(CO)c3)nn2-c2ccccc2)[C@H](c2ccc(F)c(F)c2)O1 [Compound I-617] | –
< 100 nM | COCCN1C[C@@H](NC(=O)Nc2c(C)c(-c3ccnc(CN(C)C)c3)nn2-c2ccccc2)[C@H](c2ccc(F)c(F)c2)O1 [Compound I-618] | –
< 100 nM | COCCN1C[C@@H](NC(=O)Nc2c(C)c(CO)nn2-c2ccccc2)[C@H](c2ccc(F)c(F)c2)O1 [Compound I-619] | –
< 100 nM | COCCN1C[C@@H](NC(=O)Nc2c(C)c(-c3cnc(OC)c(COC(C)=O)c3)nn2-c2ccccc2)[C@H](c2ccc(F)c(F)c2)O1 [Compound I-636] | –
< 100 nM | COCCN1C[C@@H](NC(=O)Nc2c(C)c(-c3cnc(OC)c(CO)c3)nn2-c2ccccc2)[C@H](c2ccc(F)c(F)c2)O1 [Compound I-637] | –
– | COCCN1C[C@@H](NC(=O)Nc2c(C)c(-c3ccc(CN(C)C)nc3)nn2-c2ccccc2)[C@H](c2ccc(F)c(F)c2)O1 [Compound I-638] | IC50 [2, 5]: 1.4 nM
– | COCCN1C[C@@H](NC(=O)Nc2c(C)c(-c3cnc(OC)c(CN(C)C)c3)nn2-c2ccccc2)[C@H](c2ccc(F)c(F)c2)O1 [Compound I-639] | IC50 [2, 5]: 0.52 nM
100 to 1000 nM | COCCN1C[C@@H](NC(=O)Nc2c(C)c(CN(C)C)nn2-c2ccccc2)[C@H](c2ccc(F)c(F)c2)O1 [Compound I-640] | –
< 100 nM | COCCN1C[C@@H](NC(=O)Nc2c(C)c(CCN(C)C)nn2-c2ccccc2)[C@H](c2ccc(F)c(F)c2)O1 [Compound I-641] | –
< 100 nM | COCCN1C[C@@H](NC(=O)Nc2c(C)c(-c3ccnc(CCN(C)C)c3)nn2-c2ccccc2)[C@H](c2ccc(F)c(F)c2)O1 [Compound I-643] | –
< 100 nM | CCN1C[C@@H](NC(=O)Nc2c(C)c(OCC3CNC(=O)O3)nn2-c2ccccc2)[C@H](c2ccc(F)c(F)c2)O1 (some centres unmarked) [Compound I-675] | –
< 100 nM | CCN1C[C@@H](NC(=O)Nc2c(C)c(OC(C)C3CCN(C)CC3)nn2-c2ccccc2)[C@H](c2ccc(F)c(F)c2)O1 (some centres unmarked) [Compound I-679] | –
< 100 nM | COCCN1C[C@@H](NC(=O)Nc2c(Br)c(-c3cnc(OC)nc3)nn2-c2ccccc2)[C@H](c2ccnc(F)c2)O1 [Compound I-680] | –

Compound | IC50 [2, 6] | further results
COCCN1C[C@@H](NC(=O)Nc2c(C)c(CO[Si](C)(C)C(C)(C)C)nn2-c2ccccc2)[C@H](c2ccc(F)c(F)c2)O1 [Compound I-605] | 100 to 1000 nM | –
